Read-outs that look alike come from different tables or passages of the source. Where a SMILES comes first, the peptide text is derived from it. [ ]: non-standard residue; d: D form. The star is where a group is joined. Nva = CCC[C@H](N)C(=O)O; Cbz = O=C(OCc1ccccc1)*; OtBu = CC(C)(C)O*
Tests used:
neonatal mouse calvaria = assay: Neonatal mouse calvaria assay (in vitro / ex vivo) for bone formation; type: cell-based, ICR Swiss white mouse; conditions: for EC50: read-out: Bone Formation (ED50-μM)
Description: An assay for bone resorption or bone formation is similar to that described by Gowen M. & Mundy G., J Immunol (1986) 136:2478-82. Briefly, four days after birth, the front and parietal bones of ICR Swiss white mouse pups are removed by microdissection and split along the sagittal suture. In an assay for resorption, the bones are incubated in BGJb medium (Irvine Scientific, Santa Ana, Calif.) plus 0.02% (or lower concentration) β-methylcyclodextrin, wherein the medium also contains test or control substances. The medium used when the assay is conducted to assess bone formation is Fitton and Jackson Modified BGJ Medium (Sigma) supplemented with 6 μg/ml insulin, 6 μg/ml transferrin, 6 ng/ml selenous acid, calcium and phosphate concentrations of 1.25 and 3.0 mM, respectively, and ascorbic acid to a concentration of 100 μg/ml is added every two days. The incubation is conducted at 37° C. in a humidified atmosphere of 5% CO2 and 95% air for 96 hours.
Following this, the bones are removed from the incubation media and fixed in 10% buffered formalin for 24-48 hours, decalcified in 14% EDTA for 1 week, processed through graded alcohols; and embedded in paraffin wax. Three […] sections of the calvaria are prepared. Representative sections are selected for histomorphometric assessment of bone formation or bone resorption. Bone changes are measured on sections cut 200 μm apart. Osteoblasts and osteoclasts are identified by their distinctive morphology.
Selected compounds and appropriate controls were assayed in vitro (ex vivo) for bone formation activity (described above in “Techniques for Neonatal Mouse Calvaria Assay (in vitro)). Histomorphometrical assessments of ex vivo calvaria were carried out using an OsteoMetrics bone morphometry measurement program, according to the manufacturer's instructions. Measurements were determined using either a 10- or 20-fold objective with a standard point counting eyepiece graticule.
New bone formation was determined (using a 10× objective) by measuring the new bone area formed in one field in 3 representative sections of each bone (4 bones per group). Each measurement was carried out ½ field distance from the end of the suture. Both total bone and old bone area were measured. Data were expressed as new bone area in μm^2.
Osteoblast numbers are determined by point counting. The number of osteoblast cells lining the bone surface on both sides of the bone are counted in one field using a 20× objective. Data are expressed as osteoblast numbers/mm of bone surface. […]

hair follicles = assay: Hair follicle number after injection over the calvaria (Example 8); type: in vivo, Swiss ICR mice; conditions: for number of hair follicles: administered in the same way
From the text: The assay described above to assess the effect of compounds on calvarial bone growth can also be used to assess the ability of compounds to stimulate hair growth. The test compound or appropriate control vehicle is applied to the upper and lower back of male ICR Swiss white mice either topically or by subcutaneous injection. The vehicle is selected as appropriate for the compound to be tested and for the route of administration. Optionally, the hair in the test area may be removed prior to administration. After a suitable interval, typically 7 days, the mice are anesthetized and a biopsy of the dorsal treatment area is taken using a 6 mm dermal punch. The specimens are fixed in 10% buffered formalin and imbedded in paraffin wax, and sectioned and stained to observe hair follicles. In addition, photography can be used to observe and record hair growth; typically such growth is observed after 14-18 days. After a suitable interval, typically 21 days, the animals may be euthanized and the hair analyzed for fiber analysis and the tissue from the treatment area analyzed for quantitation of hair follicles.
In more detail, male ICR Swiss white mice, aged 4-6 weeks and weighing 13-26 gm, are employed, using 4-5 mice per group. The calvarial bone growth assay is performed as described above. Briefly, the test compound or appropriate control vehicle is injected into the subcutaneous tissue over the right calvaria of normal mice. Typically, the control vehicle is the vehicle in which the compound was solubilized, and is PBS containing 5% DMSO or is PBS containing Tween (2 μl/10 ml). The animals are sacrificed on day 14 and bone growth measured by histomorphometry. Bone samples for quantitation are cleaned from adjacent tissues and fixed in 10% buffered formalin for 24-48 hours, decalcified in 14% EDTA for 1-3 weeks, processed through graded alcohols; and embedded in paraffin wax. Three to five […] sections of the calvaria are prepared, and representative sections are selected for histomorphometric assessment of the effects on bone formation and bone resorption. Sections are measured by using a camera lucida attachment to trace directly the microscopic image onto a digitizing plate. Bone changes are measured on sections cut 200 μm apart, over 4 adjacent 1×1 mm fields on both the injected and noninjected sides of the calvaria. New bone is identified by its characteristic woven structure, and osteoclasts and osteoblasts are identified by their distinctive morphology. Histomorphometry software (OsteoMeasure, Osteometrix, Inc., Atlanta) is used to process digitizer input to determine cell counts and measure areas or perimeters.
The in vivo bone calvarial growth assay of Example 3 was modified to observe the number of hair follicles in treated mice. […]

[1] = system: hair follicles of skin explants; assay: Cultured skin explants from 5 day old mice, hair follicle diameter and elongation (Example 11); type: cell-based, C3H/HeS1c mice; conditions: 72 hours
Description: Cultured skin explants from 5 day old mice cultured for 72 hours were treated with proteasome inhibitors, non-proteasomal proteases and non-proteasomal inhibitors of NF-κB and effects on hair follicle diameter and follicle elongation were determined according to the method of Kamiya, T., et al., J Derm Sci (1998) 17:54-60. Skin slices from the dorsal skin of 5 day old C3H/HeS1c mice were cultured in 1 ml of αMEM and 0.1% BSA for 72 hours and then assessed for changes in hair follicle diameter and hair elongation under an inverted microscope, using image analysis. […] Thus, the chymotrypsin-like activity of the proteasome is the catalytic component of the proteasome that is responsible for the effects of these compounds on hair follicle differentiation and hair growth. Only proteasome inhibitors had discernable effects on these parameters.

[2] = system: hair follicles of skin explants; assay: Skin explants from mice during telogen (Example 16); type: cell-based; conditions: 72 hours
From the text: In the untreated control explants, the follicles were few and small.

[3] = Mus musculus, calvarial assay in vitro

CCC[C@@H](C=O)NC(=O)[C@H](CC(C)C)NC(=O)[C@H](CC(C)C)NC(=O)OCc1ccccc1 [MG-115, N-carbobenzoyl-Leu-Leu-Nva-CHO] (Cbz-Leu-Leu-[Nva]-aldehyde)
new bone formation in the in vitro calvarial assay (neonatal mouse calvaria): positive results although less dramatic than those of simvastatin | EC50 (neonatal mouse calvaria; [3]): 1 µM | number of hair follicles (hair follicles; 10 mg/kg): stimulated an increase in the number of hair follicles

CC(C)C[C@@H](C=O)NC(=O)[C@@H](CC(C)C)NC(=O)[C@H](CC(C)C)NC(=O)OCc1ccccc1 [MG-132, N-carbobenzoyl-Leu-Leu-Leu-CHO] (Cbz-Leu-[dL]-Leu-aldehyde)
effect on hair follicle differentiation and hair growth ([1]; 0.5 μM): effectively stimulated hair follicle differentiation and enhanced hair growth | new bone formation in the in vitro calvarial assay (neonatal mouse calvaria): showed new bone formation | EC50 (neonatal mouse calvaria; Mus musculus): 0.5 µM | number of hair follicles (hair follicles; 10 mg/kg): stimulated an increase in the number of hair follicles

CC[C@H](C)[C@H](NC(=O)[C@H]([C@@H](C)CC)N(C)C(C)=O)C(=O)N[C@H](C(=O)N[C@@H](CC(C)C)C(=O)[C@@]1(C)CO1)[C@@H](C)O [Epoxomicin]
effective in concentrations as low as [1]: 12.5 nM | hair follicle diameter and follicle elongation ([2]; 25 nM): obvious increase in hair follicle diameter, and follicle elongation

CC[C@H](C)[C@H](NC(=O)OCc1ccccc1)C(=O)N[C@@H](CCC(=O)OC(C)(C)C)C(=O)N[C@@H](C)C(=O)N[C@H](C=O)CC(C)C [PSI, N-carbobenzoyl-Ile-Glu-(OtBu)-Ala-Leu-CHO] (Cbz-IE(OtBu)AL-aldehyde)
effect on hair follicle differentiation and hair growth ([1]; 12.5 nM): effectively stimulated hair follicle differentiation and enhanced hair growth | inducing bone formation compared with BMP-2 and bFGF (neonatal mouse calvaria): as good as, or better than, BMP-2 and bFGF | EC50 (neonatal mouse calvaria; [3]): 0.03 µM | hair follicle diameter and follicle elongation ([2]; 50 nM): obvious increase in hair follicle diameter, and follicle elongation | number of hair follicles versus control mice (hair follicles; 5mg/kg/day injected three times a day for 5 days over the calvaria, sacrificed sixteen days later): strikingly large increase in the number of hair follicles

CC(=O)N[C@@H](CSC(=O)[C@]1([C@@H](O)C(C)C)NC(=O)[C@H](C)[C@@H]1O)C(=O)O [Lactacystin, lactacystin]
effect on hair follicle differentiation and hair growth ([1]; dose not given): effectively stimulated hair follicle differentiation and enhanced hair growth | new bone formation in the in vitro calvarial assay (neonatal mouse calvaria): showed new bone formation | EC50 (neonatal mouse calvaria; [3]): 1 µM | number of hair follicles (hair follicles; dose not given): stimulated an increase in the number of hair follicles

simvastatin
new bone formation in the in vitro calvarial assay (neonatal mouse calvaria): showed new bone formation | EC50 (neonatal mouse calvaria; calvarial assay in vitro): 0.2 µM
